{
  "source": "patent US8563731B2",
  "about": "“Mesylate salt of 5-(2-{[6-(2,2-difluoro-2-phenylethoxy)hexyl]jamino}-1-hydroxyethyl)-8-hydroxyquinolin-2(1H)-one as agonist of the β2 adrenergic receptor” (Almirall, S.A., priority 2008, dated 2013)",
  "assay": "Stability Test under accelerated condition (solid in amber glass vials, impurities by HPLC)",
  "type": "physicochemical",
  "method": "Stability of the mesylate salt of the present invention was evaluated under accelerated condition. About 5 mg of the mesylate salt of the present invention were introduced in individual 10 ml amber glass vials. These vials were stored at 40° C. during 30 days and at 80° C. during 15 and 30 days, respectively. After the forced stress conditions, samples were dissolved in 5 ml of the appropriate solvent. Impurities increase was determined using HPLC analysis and by calculating the relative areas.",
  "note": "Counter-ions that a name gives are not always drawn.",
  "data": [
    {"compound": "O=c1ccc2c([C@@H](O)CNCCCCCCOCC(F)(F)c3ccccc3)ccc(O)c2[nH]1", "note": "[5-(2-{[6-(2,2-difluoro-2-phenylethoxy)hexyl]amino}-1(R)-hydroxy-ethyl)-8-hydroxyquinolin-2(1H)-one mesylate]", "values": [
      {"measurement": "HPLC Impurities (% area)", "setting": "Stability @ 40° C. 30 days", "value": 2.4, "unit": "%"},
      {"measurement": "HPLC Impurities (% area)", "setting": "Stability @ 80° C. 15 days", "value": 3.10, "unit": "%"},
      {"measurement": "HPLC Impurities (% area)", "setting": "Stability @ 80° C. 30 days", "value": 3.8, "unit": "%"},
      {"measurement": "percentage of impurities observed", "setting": "all forced conditions (40° C. 30 days, 80° C. 15 and 30 days)", "value": "less than 5%"}
    ]}
  ]
}
